# PubChem BioAssay AID208 (DTP/NCI, 2004)
# Where “and” joins values, the source holds several entries; their conditions need not be identical. Identical values can stand only once. Results filed as inconclusive are left out.
# System: HT29 intrarenal xenograft, nude mice, tumor weight change
# Test: NCI In Vivo Anticancer Drug Screen. Data for tumor model HT29;CX-1 Human Adenocarcinoma (MER+) (intrarenal inoculation) in NU/NU BALB/C (nude) mice
# Settings: endpoint: mean tumor weight change, higher = larger tumour
# Protocol: The antitumor activity of compounds was measured in mice bearing transplantable tumors. Survival or tumor size were measured and the results are expressed as the measurement made in the treated group (T) divided by the measurement made in the vehicle treated control group (C). The tumor model used in this assay is HT29;CX-1 Human Adenocarcinoma (MER+) (intrarenal inoculation) in NU/NU BALB/C (nude) mice
# [1] = dose: 1200.0 mg/kg/injection, schedule: Q04DX004 (sc), vehicle: saline with Tween-80
# [2] = dose: 8.0 mg/kg/injection, schedule: Q01DX010 (sc), vehicle: saline
# [3] = dose: 32.0 mg/kg/injection, schedule: Q01DX010 (sc), vehicle: saline
# [4] = dose: 50.0 mg/kg/injection, schedule: Q01DX010 (sc), vehicle: saline with Tween-80
# [5] = dose: 100.0 mg/kg/injection, schedule: Q01DX010 (sc), vehicle: saline with Tween-80
# [6] = dose: 1800.0 mg/kg/injection, schedule: Q04DX004 (sc), vehicle: saline with Tween-80
smiles,measurement,setting,value
Cn1ccc(=Nc2ccc(NC(=O)c3ccc(N=c4ccn(C)c5ccc([N+](=O)[O-])cc45)cc3[N+](=O)[O-])cc2)cc1,T/C,"dose: 300.0 mg/kg/injection, schedule: Q04DX004 (sc), vehicle: saline with Tween-80",102 % of control
same,T/C,"dose: 600.0 mg/kg/injection, schedule: Q04DX004 (sc), vehicle: saline with Tween-80",104 % of control
same,T/C,[1],164 % of control
same,T/C,"dose: 2400.0 mg/kg/injection, schedule: Q04DX004 (sc), vehicle: saline with Tween-80",156 % of control
O=C(CN1CCOCC1)Nc1nc(-c2ccc(Cl)cc2)cs1,T/C,"dose: 50.0 mg/kg/injection, schedule: Q04DX004 (ip), vehicle: saline with Tween-80",60 % of control
same,T/C,"dose: 100.0 mg/kg/injection, schedule: Q04DX004 (ip), vehicle: saline with Tween-80",76 % of control
same,T/C,"dose: 200.0 mg/kg/injection, schedule: Q04DX004 (ip), vehicle: saline with Tween-80",73 % of control
same,T/C,"dose: 400.0 mg/kg/injection, schedule: Q04DX004 (ip), vehicle: saline with Tween-80",101 % of control
same,T/C,"dose: 800.0 mg/kg/injection, schedule: Q04DX004 (ip), vehicle: saline with Tween-80",94 % of control
[Cl][Hg][Cl],T/C,"dose: 2.5 mg/kg/injection, schedule: Q04DX004 (ip), vehicle: saline",155 % of control
same,T/C,"dose: 5.0 mg/kg/injection, schedule: Q04DX004 (ip), vehicle: saline",68 % of control
COc1ccc2c(NCCCCCCCCNc3c4ccccc4nc4cc(OC)ccc34)c3ccccc3nc2c1,T/C,"dose: 31.25 mg/kg/injection, schedule: Q04DX004 (sc), vehicle: suspension in saline",65 % of control
same,T/C,"dose: 62.5 mg/kg/injection, schedule: Q04DX004 (sc), vehicle: suspension in saline",72 % of control
same,T/C,"dose: 125.0 mg/kg/injection, schedule: Q04DX004 (sc), vehicle: suspension in saline",47 % of control
same,T/C,"dose: 250.0 mg/kg/injection, schedule: Q04DX004 (sc), vehicle: suspension in saline",73 % of control
COc1cc([C@@H]2c3cc4c(cc3[C@@H](OC3OC5CO[C@@H](c6cccs6)OC5C(O)C3O)[C@H]3COC(=O)[C@H]23)OCO4)cc(OC)c1O (stereo not given in full),T/C,[2],225 % of control
same,T/C,"dose: 16.0 mg/kg/injection, schedule: Q01DX010 (sc), vehicle: saline",221 % of control
same,T/C,[3],189 % of control
same,T/C,"dose: 33.0 mg/kg/injection, schedule: Q01DX010 (sc), vehicle: saline",191 % of control
same,T/C,"dose: 66.0 mg/kg/injection, schedule: Q01DX010 (sc), vehicle: saline",60 % of control
same,T/C,"dose: 132.0 mg/kg/injection, schedule: Q01DX010 (sc), vehicle: saline",151 % of control
same,T/C,"dose: 264.0 mg/kg/injection, schedule: Q01DX010 (sc), vehicle: saline",38 % of control
CS(=O)(=O)c1ncc(Br)cn1,T/C,"dose: 25.0 mg/kg/injection, schedule: Q01DX010 (sc), vehicle: saline with Tween-80",106 % of control
same,T/C,[4],123 % of control
same,T/C,[5],185 % of control
Nc1nc2c(ncn2C2OC(CO)C(O)C2O)c(=O)[nH]1 (stereo not given),T/C,"dose: 225.0 mg/kg/injection, schedule: Q04DX004 (sc), vehicle: saline with Tween-80",84 % of control
same,T/C,"dose: 450.0 mg/kg/injection, schedule: Q04DX004 (sc), vehicle: saline with Tween-80",96 % of control
same,T/C,"dose: 900.0 mg/kg/injection, schedule: Q04DX004 (sc), vehicle: saline with Tween-80",55 % of control
same,T/C,[6],100 % of control
NC(CNC(=O)CBr)C(=O)O (stereo not given),T/C,"dose: 37.5 mg/kg/injection, schedule: Q04DX004 (sc), vehicle: water",106 % of control
same,T/C,"dose: 75.0 mg/kg/injection, schedule: Q04DX004 (sc), vehicle: water",96 % of control
same,T/C,"dose: 150.0 mg/kg/injection, schedule: Q04DX004 (sc), vehicle: water",43 % of control
CNC(=O)ON(C(C)=O)C(=O)NC,T/C,"dose: 25.0 mg/kg/injection, schedule: Q04DX004 (sc), vehicle: saline",114 % of control
same,T/C,"dose: 50.0 mg/kg/injection, schedule: Q04DX004 (sc), vehicle: saline",80 % of control
same,T/C,"dose: 100.0 mg/kg/injection, schedule: Q04DX004 (sc), vehicle: saline",56 % of control
C1CC[N-]CC1.[Cl][Pt+2][Cl].[NH-]C1CC1,T/C,"dose: 25.0 mg/kg/injection, schedule: Q04DX004 (sc), vehicle: water",99 % of control
same,T/C,"dose: 50.0 mg/kg/injection, schedule: Q04DX004 (sc), vehicle: water",46 % of control
O=[N+]([O-])O.O=[N+]([O-])O.[NH-]C1CCCCC1[NH-].[Pt+2] (stereo not given),T/C,"dose: 0.5 mg/kg/injection, schedule: Q01DX010 (sc), vehicle: dextrose",87 % of control
same,T/C,"dose: 1.0 mg/kg/injection, schedule: Q01DX010 (sc), vehicle: dextrose",62 % of control
same,T/C,"dose: 2.0 mg/kg/injection, schedule: Q01DX010 (sc), vehicle: dextrose",36 % of control
COc1cc(C2c3cc4c(cc3C(O)C(CO)C2CO)OCO4)cc(OC)c1OC (stereo not given),T/C,"dose: 200.0 mg/kg/injection, schedule: Q04DX004 (sc), vehicle: saline with Tween-80",72 % of control
same,T/C,"dose: 400.0 mg/kg/injection, schedule: Q04DX004 (sc), vehicle: saline with Tween-80",49 % of control
same,T/C,"dose: 800.0 mg/kg/injection, schedule: Q04DX004 (sc), vehicle: saline with Tween-80",96 % of control
same,T/C,"dose: 1600.0 mg/kg/injection, schedule: Q04DX004 (sc), vehicle: saline with Tween-80",30 % of control
O=C1C=CC(n2cc(F)c(=O)[nH]c2=O)O1 (stereo not given),T/C,"dose: 37.5 mg/kg/injection, schedule: Q04DX004 (sc), vehicle: suspension in saline",87 % of control
same,T/C,"dose: 75.0 mg/kg/injection, schedule: Q04DX004 (sc), vehicle: suspension in saline",88 % of control
same,T/C,"dose: 150.0 mg/kg/injection, schedule: Q04DX004 (sc), vehicle: suspension in saline",47 % of control
CC(/C=C/c1ccccc1)=Nc1ccccc1,T/C,[1],46 % of control
same,T/C,[6],54 % of control
c1ccc2c(c1)nnn1c3cnccc3nc21,T/C,[4],246 % of control
same,T/C,[5],65 % of control
CCOC(=O)C(CC(C)C)NC(=O)C(Cc1ccc(N(CCCl)CCCl)cc1)NC(C)=O (stereo not given),T/C,[5],46 % of control
same,T/C,"dose: 200.0 mg/kg/injection, schedule: Q01DX010 (sc), vehicle: saline with Tween-80",2 % of control
CCCCNCCCNCCCNC(=O)c1csc(-c2csc(CCNC(=O)C(NC(=O)C(C)C(O)C(C)NC(=O)C(NC(=O)c3nc(C(CC(N)=O)NCC(N)C(N)=O)nc(N)c3C)C(OC3OC(CO)C(O)C(O)C3OC3OC(CO)C(O)C(OC(N)=O)C3O)c3cnc[nH]3)C(C)O)n2)n1 (stereo not given),T/C,[2],30 % of control
same,T/C,[3],-32 % of control
CCOC(=O)c1ccc(NC(=O)Nc2nncs2)cc1,T/C,"dose: 100.0 mg/kg/injection, schedule: Q01DX010 (sc), vehicle: distilled water + Tween-80",52 % of control
same,T/C,"dose: 200.0 mg/kg/injection, schedule: Q01DX010 (sc), vehicle: distilled water + Tween-80",69 % of control
same,T/C,"dose: 800.0 mg/kg/injection, schedule: Q01DX010 (sc), vehicle: distilled water + Tween-80",84 % of control
C=C(C)C(=O)O[C@H]1CC2=C[C@@H](C[C@@]3(C)O[C@@H]3[C@H]3OC(=O)C(=C)[C@@H]31)OC2=O,T/C,"dose: 75.0 mg/kg/injection, schedule: Q04DX004 (sc), vehicle: Klucel (hydroxypropylcellulose) (HPC)",75 % of control
same,T/C,"dose: 150.0 mg/kg/injection, schedule: Q04DX004 (sc), vehicle: Klucel (hydroxypropylcellulose) (HPC)",121 % of control
CO[C@@]12[C@H](COC(N)=O)C3=C(C(=O)C(C)=C(N)C3=O)N1C[C@@H]1N[C@@H]12,T/C,"dose: 1.5 mg/kg/injection, schedule: Q04DX004 (sc), vehicle: saline",47 % of control and 52 % of control and 71 % of control
same,T/C,"dose: 3.0 mg/kg/injection, schedule: Q04DX004 (sc), vehicle: saline",-35 % of control and -23 % of control and -13 % of control
same,T/C,"dose: 6.0 mg/kg/injection, schedule: Q04DX004 (sc), vehicle: saline",-86 % of control
CCn1cnc2c(=S)nc[nH]c21,T/C,"dose: 150.0 mg/kg/injection, schedule: Q04DX004 (sc), vehicle: saline",175 % of control
O=C1C2CC(Cl)C(SSC3CC4C(=O)N(SC(Cl)(Cl)C(Cl)Cl)C(=O)C4CC3Cl)CC2C(=O)N1SC(Cl)(Cl)C(Cl)Cl (stereo not given),T/C,"dose: 75.0 mg/kg/injection, schedule: Q04DX004 (ip), vehicle: Klucel (hydroxypropylcellulose) (HPC)",56 % of control
same,T/C,"dose: 150.0 mg/kg/injection, schedule: Q04DX004 (ip), vehicle: Klucel (hydroxypropylcellulose) (HPC)",58 % of control
same,T/C,"dose: 300.0 mg/kg/injection, schedule: Q04DX004 (ip), vehicle: Klucel (hydroxypropylcellulose) (HPC)",39 % of control
same,T/C,"dose: 600.0 mg/kg/injection, schedule: Q04DX004 (ip), vehicle: Klucel (hydroxypropylcellulose) (HPC)",35 % of control
CN(C)CCC(=O)C(=Cc1ccc(O)cc1)C(=O)CCN(C)C,T/C,"dose: 75.0 mg/kg/injection, schedule: Q04DX004 (ip), vehicle: saline",66 % of control
same,T/C,"dose: 150.0 mg/kg/injection, schedule: Q04DX004 (ip), vehicle: saline",100 % of control
